# Results published in patent US20230143604A1, “QW DOSING OF GIP RECEPTOR AGONIST PEPTIDE COMPOUNDS AND USES THEREOF” (TAKEDA PHARMACEUTICAL COMPANY LIMITED, priority 2020, published 2023).
# Starred links: 1 amine or outer side, 2 acyl side, 3 side chain; linkers in the order of their positions; H or OH if unused. Non-standard residues stand in square brackets, D forms with d. Residues, ends and D or L forms follow the SMILES beside them. Groups on a side chain read outwards from the residue. *: point of attachment. C18 diacid = O=C(O)CCCCCCCCCCCCCCCCC(=O)*; γGlu = O=C(O)[C@H](CCC(=O)[*:2])N[*:1]; AEEA = NCCOCCOCC(=O)O; Aib = CC(C)(N)C(=O)O
# Experiment: physchem
# Summary of the method: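 3 mg of peptide treated with 100 μL portions of 200 mM phosphate buffer pH 7.4, sonicating/vortexing up to 1 min, with further buffer added until fully dissolved. Solubility then quantified by HPLC.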
Compound,solubility (pH 7.4) [mg/mL],"solubility (pH 7.4, aqueous buffer) [mg/mL]"
CC[C@H](C)[C@H](NC(=O)[C@H](CO)NC(=O)[C@H](Cc1ccc(O)cc1)NC(=O)[C@H](CC(=O)O)NC(=O)[C@H](CO)NC(=O)[C@@H](NC(=O)[C@H](Cc1ccccc1)NC(=O)[C@@H](NC(=O)CNC(=O)[C@H](CCC(=O)O)NC(=O)C(C)(C)NC(=O)[C@@H](N)Cc1ccc(O)cc1)[C@@H](C)O)[C@@H](C)CC)C(=O)N[C@@H](C)C(=O)NC(C)(C)C(=O)N[C@@H](CC(=O)O)C(=O)N[C@@H](CCCCN)C(=O)N[C@@H](C)C(=O)N[C@@H](CCCCNC(=O)COCCOCCNC(=O)COCCOCCNC(=O)CC[C@H](NC(=O)CCCCCCCCCCCCCCCCC(=O)O)C(=O)O)C(=O)N[C@@H](CCC(N)=O)C(=O)N[C@@H](CCC(N)=O)C(=O)N[C@@H](CC(=O)O)C(=O)N[C@@H](Cc1ccccc1)C(=O)N[C@H](C(=O)N[C@@H](CCC(=O)O)C(=O)N[C@@H](Cc1c[nH]c2ccccc12)C(=O)N[C@@H](CC(C)C)C(=O)N[C@@H](CC(C)C)C(=O)N[C@@H](C)C(=O)N[C@@H](CCC(N)=O)C(=O)N[C@@H](CCCNC(=N)N)C(=O)NCC(=O)O)C(C)C [Compound 164] (H-Y[Aib]EGTFISDYSIA[Aib]DKAK([AEEA-AEEA-γGlu-C18 diacid])QQDFVEWLLAQRG-OH),≥ 15,≥ 30
CC[C@H](C)[C@H](NC(=O)[C@H](CO)NC(=O)[C@H](Cc1ccc(O)cc1)NC(=O)[C@H](CC(=O)O)NC(=O)[C@H](CO)NC(=O)[C@@H](NC(=O)[C@H](Cc1ccccc1)NC(=O)[C@@H](NC(=O)CNC(=O)[C@H](CCC(=O)O)NC(=O)C(C)(C)NC(=O)[C@@H](N)Cc1ccc(O)cc1)[C@@H](C)O)[C@@H](C)CC)C(=O)N[C@@H](C)C(=O)NC(C)(C)C(=O)N[C@@H](CC(=O)O)C(=O)N[C@@H](CCCCN)C(=O)N[C@@H](C)C(=O)N[C@@H](CCCCNC(=O)COCCOCCNC(=O)COCCOCCNC(=O)CC[C@H](NC(=O)CCCCCCCCCCCCCCCCC(=O)O)C(=O)O)C(=O)N[C@@H](CCC(N)=O)C(=O)N[C@@H](C)C(=O)N[C@@H](CC(=O)O)C(=O)N[C@@H](Cc1ccccc1)C(=O)N[C@H](C(=O)N[C@@H](CCC(=O)O)C(=O)N[C@@H](Cc1c[nH]c2ccccc12)C(=O)N[C@@H](CC(C)C)C(=O)N[C@@H](CC(C)C)C(=O)N[C@@H](C)C(=O)N[C@@H](CCC(N)=O)C(=O)N[C@@H](CCCNC(=N)N)C(=O)NCC(=O)O)C(C)C [Compound 165] (H-Y[Aib]EGTFISDYSIA[Aib]DKAK([AEEA-AEEA-γGlu-C18 diacid])QADFVEWLLAQRG-OH),≥ 15,≥ 30
CC[C@H](C)[C@H](NC(=O)[C@H](CO)NC(=O)[C@H](Cc1ccc(O)cc1)NC(=O)[C@H](CC(=O)O)NC(=O)[C@H](CO)NC(=O)[C@@H](NC(=O)[C@H](Cc1ccccc1)NC(=O)[C@@H](NC(=O)CNC(=O)[C@H](CCC(=O)O)NC(=O)C(C)(C)NC(=O)[C@@H](N)Cc1ccc(O)cc1)[C@@H](C)O)[C@@H](C)CC)C(=O)N[C@@H](C)C(=O)NC(C)(C)C(=O)N[C@@H](CC(=O)O)C(=O)N[C@@H](CCCCN)C(=O)N[C@H](C(=O)N[C@@H](CCCCNC(=O)COCCOCCNC(=O)COCCOCCNC(=O)CC[C@H](NC(=O)CCCCCCCCCCCCCCCCC(=O)O)C(=O)O)C(=O)N[C@@H](CCC(N)=O)C(=O)N[C@@H](C)C(=O)N[C@@H](CC(=O)O)C(=O)N[C@@H](Cc1ccccc1)C(=O)N[C@H](C(=O)N[C@@H](CCC(=O)O)C(=O)N[C@@H](Cc1c[nH]c2ccccc12)C(=O)N[C@@H](CC(C)C)C(=O)N[C@@H](CC(C)C)C(=O)N[C@@H](C)C(=O)N[C@@H](CCC(N)=O)C(=O)N[C@@H](CCCNC(=N)N)C(=O)NCC(=O)O)C(C)C)[C@@H](C)CC [Compound 166] (H-Y[Aib]EGTFISDYSIA[Aib]DKIK([AEEA-AEEA-γGlu-C18 diacid])QADFVEWLLAQRG-OH),≥ 15,≥ 30
CC[C@H](C)[C@H](NC(=O)[C@H](Cc1ccccc1)NC(=O)[C@@H](NC(=O)CNC(=O)[C@H](CCC(=O)O)NC(=O)C(C)(C)NC(=O)[C@@H](N)Cc1ccc(O)cc1)[C@@H](C)O)C(=O)N[C@@H](CO)C(=O)N[C@@H](CC(=O)O)C(=O)N[C@@H](Cc1ccc(O)cc1)C(=O)N[C@@H](CO)C(=O)N[C@H](C(=O)NC(C)(C)C(=O)N[C@@H](CC(C)C)C(=O)N[C@@H](CC(=O)O)C(=O)N[C@@H](CCCCN)C(=O)N[C@@H](C)C(=O)N[C@@H](C)C(=O)N[C@@H](CCC(N)=O)C(=O)N[C@@H](CCC(N)=O)C(=O)N[C@@H](CCCCNC(=O)COCCOCCNC(=O)COCCOCCNC(=O)CC[C@H](NC(=O)CC[C@H](NC(=O)CCCCCCCCCCCCCCCCC(=O)O)C(=O)O)C(=O)O)C(=O)N[C@@H](Cc1ccccc1)C(=O)N[C@H](C(=O)N[C@@H](CCC(=O)O)C(=O)N[C@@H](Cc1c[nH]c2ccccc12)C(=O)N[C@@H](CC(C)C)C(=O)N[C@@H](CC(C)C)C(=O)N[C@@H](C)C(=O)N[C@@H](CCC(N)=O)C(=O)N[C@@H](CCCNC(=N)N)C(=O)NCC(=O)O)C(C)C)[C@@H](C)CC [Compound 167] (H-Y[Aib]EGTFISDYSI[Aib]LDKAAQQK([AEEA-AEEA-γGlu-γGlu-C18 diacid])FVEWLLAQRG-OH),≥ 15,≥ 30
CC[C@H](C)[C@H](NC(=O)[C@H](Cc1ccccc1)NC(=O)[C@@H](NC(=O)CNC(=O)[C@H](CCC(=O)O)NC(=O)C(C)(C)NC(=O)[C@@H](N)Cc1ccc(O)cc1)[C@@H](C)O)C(=O)N[C@@H](CO)C(=O)N[C@@H](CC(=O)O)C(=O)N[C@@H](Cc1ccc(O)cc1)C(=O)N[C@@H](CO)C(=O)N[C@H](C(=O)NC(C)(C)C(=O)N[C@@H](CC(C)C)C(=O)N[C@@H](CC(=O)O)C(=O)N[C@@H](CCCCN)C(=O)N[C@@H](C)C(=O)N[C@@H](C)C(=O)N[C@@H](CCC(N)=O)C(=O)N[C@@H](C)C(=O)N[C@@H](CCCCNC(=O)COCCOCCNC(=O)COCCOCCNC(=O)CC[C@H](NC(=O)CC[C@H](NC(=O)CCCCCCCCCCCCCCCCC(=O)O)C(=O)O)C(=O)O)C(=O)N[C@@H](Cc1ccccc1)C(=O)N[C@H](C(=O)N[C@@H](CCC(=O)O)C(=O)N[C@@H](Cc1c[nH]c2ccccc12)C(=O)N[C@@H](CC(C)C)C(=O)N[C@@H](CC(C)C)C(=O)N[C@@H](C)C(=O)N[C@@H](CCC(N)=O)C(=O)N[C@@H](CCCNC(=N)N)C(=O)NCC(=O)O)C(C)C)[C@@H](C)CC [Compound 168] (H-Y[Aib]EGTFISDYSI[Aib]LDKAAQAK([AEEA-AEEA-γGlu-γGlu-C18 diacid])FVEWLLAQRG-OH),≥ 15,≥ 30
CC[C@H](C)[C@H](NC(=O)[C@H](Cc1ccccc1)NC(=O)[C@@H](NC(=O)CNC(=O)[C@H](CCC(=O)O)NC(=O)C(C)(C)NC(=O)[C@@H](N)Cc1ccc(O)cc1)[C@@H](C)O)C(=O)N[C@@H](CO)C(=O)N[C@@H](CC(=O)O)C(=O)N[C@@H](Cc1ccc(O)cc1)C(=O)N[C@@H](CO)C(=O)N[C@H](C(=O)NC(C)(C)C(=O)N[C@@H](CC(C)C)C(=O)N[C@@H](CC(=O)O)C(=O)N[C@@H](CCCCN)C(=O)N[C@@H](C)C(=O)N[C@@H](CCCCNC(=O)COCCOCCNC(=O)COCCOCCNC(=O)CC[C@H](NC(=O)CCCCCCCCCCCCCCCCC(=O)O)C(=O)O)C(=O)N[C@@H](CCC(N)=O)C(=O)N[C@@H](CCC(N)=O)C(=O)N[C@@H](CC(=O)O)C(=O)N[C@@H](Cc1ccccc1)C(=O)N[C@H](C(=O)N[C@@H](CCC(=O)O)C(=O)N[C@@H](Cc1c[nH]c2ccccc12)C(=O)N[C@@H](CC(C)C)C(=O)N[C@@H](CC(C)C)C(=O)N[C@@H](C)C(=O)N[C@@H](CCC(N)=O)C(=O)N[C@@H](CCCNC(=N)N)C(=O)NCC(=O)O)C(C)C)[C@@H](C)CC [Compound 169] (H-Y[Aib]EGTFISDYSI[Aib]LDKAK([AEEA-AEEA-γGlu-C18 diacid])QQDFVEWLLAQRG-OH),≥ 15,≥ 30
CC[C@H](C)[C@H](NC(=O)[C@H](Cc1ccccc1)NC(=O)[C@@H](NC(=O)CNC(=O)[C@H](CCC(=O)O)NC(=O)C(C)(C)NC(=O)[C@@H](N)Cc1ccc(O)cc1)[C@@H](C)O)C(=O)N[C@@H](CO)C(=O)N[C@@H](CC(=O)O)C(=O)N[C@@H](Cc1ccc(O)cc1)C(=O)N[C@@H](CO)C(=O)N[C@H](C(=O)NC(C)(C)C(=O)N[C@@H](CC(C)C)C(=O)N[C@@H](CC(=O)O)C(=O)N[C@@H](CCCCN)C(=O)N[C@@H](C)C(=O)N[C@@H](CCCCNC(=O)COCCOCCNC(=O)COCCOCCNC(=O)CC[C@H](NC(=O)CCCCCCCCCCCCCCCCC(=O)O)C(=O)O)C(=O)N[C@@H](CCC(N)=O)C(=O)N[C@@H](CCC(N)=O)C(=O)N[C@@H](CC(=O)O)C(=O)N[C@@H](Cc1ccccc1)C(=O)N[C@H](C(=O)N[C@@H](CC(N)=O)C(=O)N[C@@H](Cc1c[nH]c2ccccc12)C(=O)N[C@@H](CC(C)C)C(=O)N[C@@H](CC(C)C)C(=O)N[C@@H](C)C(=O)N[C@@H](CCC(N)=O)C(=O)N[C@@H](CCCNC(=N)N)C(=O)NCC(=O)O)C(C)C)[C@@H](C)CC [Compound 170] (H-Y[Aib]EGTFISDYSI[Aib]LDKAK([AEEA-AEEA-γGlu-C18 diacid])QQDFVNWLLAQRG-OH),≥ 15,≥ 30
CC[C@H](C)[C@H](NC(=O)[C@H](Cc1ccccc1)NC(=O)[C@@H](NC(=O)CNC(=O)[C@H](CCC(=O)O)NC(=O)C(C)(C)NC(=O)[C@@H](N)Cc1ccc(O)cc1)[C@@H](C)O)C(=O)N[C@@H](CO)C(=O)N[C@@H](CC(=O)O)C(=O)N[C@@H](Cc1ccc(O)cc1)C(=O)N[C@@H](CO)C(=O)N[C@H](C(=O)NC(C)(C)C(=O)N[C@@H](CC(C)C)C(=O)N[C@@H](CC(=O)O)C(=O)N[C@@H](CCCCN)C(=O)N[C@@H](C)C(=O)N[C@@H](CCCCNC(=O)COCCOCCNC(=O)COCCOCCNC(=O)CC[C@H](NC(=O)CCCCCCCCCCCCCCCCC(=O)O)C(=O)O)C(=O)N[C@@H](CCC(N)=O)C(=O)N[C@@H](C)C(=O)N[C@@H](CC(=O)O)C(=O)N[C@@H](Cc1ccccc1)C(=O)N[C@H](C(=O)N[C@@H](CC(N)=O)C(=O)N[C@@H](Cc1c[nH]c2ccccc12)C(=O)N[C@@H](CC(C)C)C(=O)N[C@@H](CC(C)C)C(=O)N[C@@H](C)C(=O)N[C@@H](CCC(N)=O)C(=O)N[C@@H](CCCNC(=N)N)C(=O)NCC(=O)O)C(C)C)[C@@H](C)CC [Compound 171] (H-Y[Aib]EGTFISDYSI[Aib]LDKAK([AEEA-AEEA-γGlu-C18 diacid])QADFVNWLLAQRG-OH),≥ 15,≥ 30
